Laboratory results: patent publication US5198564A, “Cis-platinum-diamine complexes and antitumorous compositions containing them, and process for their preparation” (Beijing Polytechnic University, priority 1987, dated 1993)

Legend:
[1] = water
[2] = test system: L1210 mouse leukemia cells; test: Effect in prolonging the life of mouse with cancer (L1210), Test Example 1; type: in vivo, DBA/2 mice; settings: i.p. once, 30 days observation
Protocol: To DBA/2 mice, L1210 mouse leukemia cells were inoculated into the abdominal cavity of each mouse used in the test. The test drugs were intraperitoneally administered once (e.g. after 24 hours of inoculation). […] The ratio (T/C %) of the survival time of a treated group (administered with a certain drug) to the survival time of a control group (administered with only physiological saline) was obtained and is shown in table VI with the average number of survival days for mice of the control group being evaluated as 100. The test drugs were aqueous suspensions obtained by adding small amounts of surfactants (e.g. tween-80) to the less soluble test compounds in water.

S180 sarcoma cells = test: Effect in prolonging the life of mouse with cancer (S180), Test Example 2; type: in vivo, DBA/2 mice; settings: i.p. once, 30 days observation
Protocol: To DBA/2 mice, S180 sarcoma cells were intraperitoneally inoculated with approximately 1×10^6 cells/mouse. The test drugs were intraperitoneally administered once (e.g. after 24 hours of inoculation). […] The ratio (T/C %) of survival time of test and control animals was obtained and is shown in table V with the average number of survival days for mice of the control group to which a physiological saline was administered being evaluated as 100. The test drugs were aqueous suspensions obtained by adding small amount of surfactants (e.g. tween-80) to the less soluble test compounds in water.

[3] = test system: Sarcoma 180 and Leukemia L1210; settings: reported in 1969; cited from earlier work
[4] = L1210 S180 printed, one value only, 8 mg/kg

## NCc1ccc(C(=O)O)cc1.NCc1ccc(C(=O)O)cc1.[Cl][Pt][Cl] [drawing 212]
[1]
  Solubility: 2200 µg/mL

## NCc1ccc(Cl)cc1.NCc1ccc(Cl)cc1.O=C([O-])C1(C(=O)[O-])CCC1.[Pt+2] [V/7]
[2]; L1210, 10 mg/kg
  T/C (%) of ST (ratio of survival time of test and control animals): > 210%
S180 sarcoma cells; 10 mg/kg
  T/C (%) of ST (ratio of survival time of test and control animals): > 202%

## NCc1ccc(Br)cc1.NCc1ccc(Br)cc1.[Cl][Pt][Cl]
[2]; L1210, 12 mg/kg
  T/C (%) of ST (ratio of survival time of test and control animals): > 205%
S180 sarcoma cells; 12 mg/kg
  T/C (%) of ST (ratio of survival time of test and control animals): > 198%

## N[C@@H]1COCO[C@@H]1c1ccccc1.N[C@@H]1COCO[C@@H]1c1ccccc1.[Cl][Pt][Cl]
[1]
  Solubility: 60 µg/mL

## NCc1ccc(CO)o1.NCc1ccc(CO)o1.[I][Pt][I] [I 44]
[2]; L1210, 17.5 mg/kg
  T/C (%) of ST (ratio of survival time of test and control animals): > 215%
S180 sarcoma cells; 17.5 mg/kg
  T/C (%) of ST (ratio of survival time of test and control animals): > 220%

## NCc1cc(C(=O)O)c(C(=O)O)cc1CN.[Cl][Pt][Cl]
[1]
  Solubility: 2400 µg/mL

## C[C@H](N)c1ccccc1.C[C@H](N)c1ccccc1.[I][Pt][I] [I 30]
[2]; L1210, 17.5 mg/kg
  T/C (%) of ST (ratio of survival time of test and control animals): > 226%
S180 sarcoma cells; 17.5 mg/kg
  T/C (%) of ST (ratio of survival time of test and control animals): > 230%

## NCc1ccc(F)cc1.NCc1ccc(F)cc1.[I][Pt][I] [I 11]
[2]; L1210, 13.5 mg/kg
  T/C (%) of ST (ratio of survival time of test and control animals): > 161%
S180 sarcoma cells; 13.5 mg/kg
  T/C (%) of ST (ratio of survival time of test and control animals): > 184%

## NCc1ccc(CO)o1.NCc1ccc(CO)o1.[I][Pt][I] [drawing 215]
[1]
  Solubility: 200 µg/mL

## NCc1ccc(Cl)c(O)c1.NCc1ccc(Cl)c(O)c1.[Cl][Pt][Cl] [I 21]
[2]; L1210, 15 mg/kg
  T/C (%) of ST (ratio of survival time of test and control animals): > 238%
S180 sarcoma cells; 15 mg/kg
  T/C (%) of ST (ratio of survival time of test and control animals): > 251%

## NCc1ccc(O)cc1.NCc1ccc(O)cc1.[I][Pt][I]
[1]
  Solubility: 800 µg/mL

## C[C@H](N)c1ccccc1.C[C@H](N)c1ccccc1.[Cl][Pt][Cl] [I 31]
[2]; L1210, 17.5 mg/kg
  T/C (%) of ST (ratio of survival time of test and control animals): > 260%
S180 sarcoma cells; 17.5 mg/kg
  T/C (%) of ST (ratio of survival time of test and control animals): > 245%

## NCc1ccc(F)cc1.NCc1ccc(F)cc1.[Cl][Pt][Cl] [I 12]
[2]; L1210, 13.5 mg/kg
  T/C (%) of ST (ratio of survival time of test and control animals): > 177%
S180 sarcoma cells; 13.5 mg/kg
  T/C (%) of ST (ratio of survival time of test and control animals): > 175%

## NCc1ccc(Cl)c(O)c1.NCc1ccc(Cl)c(O)c1.[I][Pt][I] [I 20]
[2]; L1210, 15 mg/kg
  T/C (%) of ST (ratio of survival time of test and control animals): > 212%
S180 sarcoma cells; 15 mg/kg
  T/C (%) of ST (ratio of survival time of test and control animals): > 227%

## NCc1ccc(Cl)c(O)c1.NCc1ccc(Cl)c(O)c1.[Cl][Pt][Cl] [drawing 210]
[1]
  Solubility: 900 µg/mL

## NCc1ccccc1CN.[I][Pt][I]
[1]
  Solubility: 10 µg/mL

## N[C@@H]1COCO[C@@H]1c1ccccc1.N[C@@H]1COCO[C@@H]1c1ccccc1.[I][Pt][I]
[1]
  Solubility: 20 µg/mL

## NCc1ccc(Cl)cc1.NCc1ccc(Cl)cc1.[I][Pt][I]
[2]; L1210, 10 mg/kg
  T/C (%) of ST (ratio of survival time of test and control animals): > 182%
S180 sarcoma cells; 10 mg/kg
  T/C (%) of ST (ratio of survival time of test and control animals): > 140%

## NCc1ccccc1CN.[Cl][Pt][Cl]
[1]
  Solubility: 20 µg/mL

## NCc1ccco1.NCc1ccco1.[Cl][Pt][Cl] [drawing 214]
[1]
  Solubility: 160 µg/mL

## NCc1ccccc1Br.NCc1ccccc1Br.[I][Pt][I]
[2]; L1210, 10 mg/kg
  T/C (%) of ST (ratio of survival time of test and control animals): > 175%
S180 sarcoma cells; 10 mg/kg
  T/C (%) of ST (ratio of survival time of test and control animals): > 180%

## NCc1cc(C(=O)O)c(C(=O)O)cc1CN.[I][Pt][I]
[1]
  Solubility: 1100 µg/mL

## NCc1ccc(CO)o1.NCc1ccc(CO)o1.[Cl][Pt][Cl] [drawing 216]
[1]
  Solubility: 1100 µg/mL

## C[C@@H](N)c1ccccc1.C[C@@H](N)c1ccccc1.[Cl][Pt][Cl] [I 29]
[2]; L1210, 17.5 mg/kg
  T/C (%) of ST (ratio of survival time of test and control animals): > 246%
S180 sarcoma cells; 17.5 mg/kg
  T/C (%) of ST (ratio of survival time of test and control animals): > 250%

## NCc1ccc(Cl)cc1.NCc1ccc(Cl)cc1.[Cl][Pt][Cl] [drawing 204]
[1]
  Solubility: 10 µg/mL

## NCc1ccco1.NCc1ccco1.[I][Pt][I] [I 42]
[2]; L1210, 17.5 mg/kg
  T/C (%) of ST (ratio of survival time of test and control animals): > 200%
S180 sarcoma cells; 17.5 mg/kg
  T/C (%) of ST (ratio of survival time of test and control animals): > 200%

## NCc1ccco1.NCc1ccco1.[Cl][Pt][Cl] [I 43]
[2]; L1210, 12 mg/kg
  T/C (%) of ST (ratio of survival time of test and control animals): > 225%
S180 sarcoma cells; 12 mg/kg
  T/C (%) of ST (ratio of survival time of test and control animals): > 230%

## NCc1ccco1.NCc1ccco1.[I][Pt][I] [drawing 213]
[1]
  Solubility: 60 µg/mL

## C[C@@H](N)c1ccccc1.C[C@@H](N)c1ccccc1.[I][Pt][I] [I 28]
[2]; L1210, 17.5 mg/kg
  T/C (%) of ST (ratio of survival time of test and control animals): > 220%
S180 sarcoma cells; 17.5 mg/kg
  T/C (%) of ST (ratio of survival time of test and control animals): > 215%

## NCc1ccccc1.NCc1ccccc1.[Cl][Pt][Cl]
[2]; [4]
  T/C (%) of ST (ratio of survival time of test and control animals): > 201%

## NCc1ccc(Cl)c(O)c1.NCc1ccc(Cl)c(O)c1.[I][Pt][I] [drawing 209]
[1]
  Solubility: 400 µg/mL

## NCc1ccc(CO)o1.NCc1ccc(CO)o1.[Cl][Pt][Cl] [I 45]
[2]; L1210, 12 mg/kg
  T/C (%) of ST (ratio of survival time of test and control animals): > 226%
S180 sarcoma cells; 12 mg/kg
  T/C (%) of ST (ratio of survival time of test and control animals): > 218%

## NCc1ccc(O)cc1.NCc1ccc(O)cc1.[Cl][Pt][Cl]
[1]
  Solubility: 1500 µg/mL

## N.N.O=C1[O][Pt][O]C(=O)C12CCC2 [reference compound]
[1]
  Solubility: 18500 µg/mL

## N.N.[Cl][Pt][Cl] [PDD, Cis-platinum (II) diamine dichloride]
[3]
  anticancer activity: strong anticancer activity against Sarcoma 180 and Leukemia L1210

## NCc1ccc(C(=O)O)cc1.NCc1ccc(C(=O)O)cc1.[Cl][Pt][Cl] [I 37]
[2]; L1210, 10 mg/kg
  T/C (%) of ST (ratio of survival time of test and control animals): > 250%
S180 sarcoma cells; 10 mg/kg
  T/C (%) of ST (ratio of survival time of test and control animals): > 255%

## NCc1ccc(Br)cc1.NCc1ccc(Br)cc1.[I][Pt][I]
[2]; L1210, 17.5 mg/kg
  T/C (%) of ST (ratio of survival time of test and control animals): > 150%
S180 sarcoma cells; 17.5 mg/kg
  T/C (%) of ST (ratio of survival time of test and control animals): > 158%

## NCc1ccc(C(=O)O)cc1.NCc1ccc(C(=O)O)cc1.[I][Pt][I] [I 36]
[2]; L1210, 10 mg/kg
  T/C (%) of ST (ratio of survival time of test and control animals): > 243%
S180 sarcoma cells; 10 mg/kg
  T/C (%) of ST (ratio of survival time of test and control animals): > 230%

## NCc1ccc(Cl)cc1.NCc1ccc(Cl)cc1.[Cl][Pt][Cl] [drawing 224]
[2]; L1210, 10 mg/kg
  T/C (%) of ST (ratio of survival time of test and control animals): > 197%
S180 sarcoma cells; 10 mg/kg
  T/C (%) of ST (ratio of survival time of test and control animals): > 140%

## NCc1ccc(C(=O)O)cc1.NCc1ccc(C(=O)O)cc1.[I][Pt][I] [drawing 211]
[1]
  Solubility: 1000 µg/mL

## NCc1ccccc1Br.NCc1ccccc1Br.[Cl][Pt][Cl]
[2]; L1210, 10 mg/kg
  T/C (%) of ST (ratio of survival time of test and control animals): > 180%
S180 sarcoma cells; 10 mg/kg
  T/C (%) of ST (ratio of survival time of test and control animals): > 184%

## NCc1ccccc1.NCc1ccccc1.[I][Pt][I]
[2]; [4]
  T/C (%) of ST (ratio of survival time of test and control animals): > 201%
